US7268152B2, “Glucocorticoid mimetics, methods of making them, pharmaceutical compositions, and uses thereof” (Boehringer Ingelheim Pharmaceuticals, Inc., priority 2002, dated 2007)

biological target: T1, human glucocorticoid receptor (GR) complex (Homo sapiens, UniProt P04150); assay: Glucocorticoid receptor competitive binding assay (fluorescence polarization); conditions: competition with TAMRA-labeled dexamethasone
T1 construct: made in house; host or cells: insect expression system (baculovirus lysate)
T1 sequence (P04150 1-777): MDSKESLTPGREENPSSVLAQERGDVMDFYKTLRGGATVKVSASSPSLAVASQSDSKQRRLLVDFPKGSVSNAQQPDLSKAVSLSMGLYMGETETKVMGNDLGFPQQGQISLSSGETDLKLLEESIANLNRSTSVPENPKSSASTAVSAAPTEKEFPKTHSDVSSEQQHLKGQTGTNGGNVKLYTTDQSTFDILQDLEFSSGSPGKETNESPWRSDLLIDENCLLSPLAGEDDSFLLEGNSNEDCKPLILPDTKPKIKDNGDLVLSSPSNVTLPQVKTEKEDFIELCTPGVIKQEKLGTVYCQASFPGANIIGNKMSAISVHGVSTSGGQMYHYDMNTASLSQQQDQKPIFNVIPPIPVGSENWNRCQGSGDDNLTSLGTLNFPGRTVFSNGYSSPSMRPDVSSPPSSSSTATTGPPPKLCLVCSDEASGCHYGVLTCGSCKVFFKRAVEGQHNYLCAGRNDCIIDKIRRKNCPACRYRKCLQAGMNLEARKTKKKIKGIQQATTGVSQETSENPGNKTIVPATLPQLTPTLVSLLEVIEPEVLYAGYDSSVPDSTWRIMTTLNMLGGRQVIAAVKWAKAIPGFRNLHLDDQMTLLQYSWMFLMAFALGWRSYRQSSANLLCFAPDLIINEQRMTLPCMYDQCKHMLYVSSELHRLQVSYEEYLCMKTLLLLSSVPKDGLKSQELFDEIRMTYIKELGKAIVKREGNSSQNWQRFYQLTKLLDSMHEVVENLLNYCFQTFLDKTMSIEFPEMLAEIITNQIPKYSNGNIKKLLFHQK
Procedure: Compounds of the invention were evaluated for binding to the steroid receptor by a fluorescence polarization competitive binding assay. Detailed descriptions for preparation of recombinant glucocorticoid receptor (GR) complex used in the assay is described in U.S. provisional application No. 60/291,877, filed May 18, 2001, and incorporated herein by reference in its entirety. Preparation of the tetramethyl rhodamine (TAMRA)-labeled dexamethasone probe was accomplished using a standard literature procedure (M. Pons et al., J. Steroid Biochem., 1985, 22, pp. 267-273).
A. Glucocorticoid Receptor Competitive Binding Assay
Step 1. Characterization of the Fluorescent Probe
The wavelengths for maximum excitation and emission of the fluorescent probe should first be measured. An example of such a probe is rhodamine (TAMRA)-labeled dexamethasone.
The affinity of the probe for the steroid receptor was then determined in a titration experiment. The fluorescence polarization value of the probe in assay buffer was measured on an SLM-8100 fluorometer using the excitation and emission maximum values described above. Aliquots of expression vector lysate were added and fluorescence polarization was measured after each addition until no further change in polarization value was observed. Non-linear least squares regression analysis was used to calculate the dissociation constant of the probe from the polarization values obtained for lysate binding to the probe.
Step 2. Screeningfor Inhibitors of Probe Binding
This assay uses fluorescence polarization (FP) to quantitate the ability of test compounds to compete with tetramethyl rhodamine (TAMRA)-labeled dexamethasone for binding to a human glucocorticoid receptor (GR) complex prepared from an insect expression system. The assay buffer was: 10 mM TES, 50 mM KCl, 20 mM Na2MoO4.2H2O, 1.5 mM EDTA, 0.04% w/v CHAPS, 10% v/v glycerol, 1 mM dithiothreitol, pH 7.4. Test compounds were dissolved to 1 mM in neat DMSO and then further diluted to 10×assay concentration in assay buffer supplemented with 10% v/v DMSO. Test compounds were serially diluted at 10×assay concentrations in 10% DMSO-containing buffer in 96-well polypropylene plates. Binding reaction mixtures were prepared in 96-well black Dynex microtiter plates by sequential addition of the following assay components to each well: […] of 10×test compound solution, 85 μL of GR-containing baculovirus lysate diluted 1:170 in assay buffer, and 50 μL of 15 nM TAMRA-labeled dexamethasone. Positive controls were reaction mixtures containing no test compound; negative controls (blanks) were reaction mixtures containing 0.7 μM to 2 μM dexamethasone. The binding reactions were incubated for 1 hour at room temperature and then read for fluorescence polarization in the LJL Analyst set to 550 nm excitation and 580 nm emission, with the Rhodamine 561 dichroic mirror installed. IC50 values were determined by iterative non-linear curve fitting of the FP signal data to a 4-parameter logistic equation.

| Structure (SMILES) | IC50 [nM] |
| --- | --- |
| COc1ccc(F)cc1C(C)(C)CC(O)(Cc1cc(Cl)cc(Cl)c1)C(F)(F)F (stereo not shown) [2-(3,5-Dichlorobenzyl)-1,1,1-trifluoro-4-(5-fluoro-2-methoxyphenyl)-4-methylpentan-2-ol] | ≤ 100 |
| Cc1cc(C)cc(CC(O)(CC(C)(C)c2cc(F)ccc2O)C(F)(F)F)c1 (stereo not shown) [2-[3-(3,5-Dimethylbenzyl)-4,4,4-trifluoro-3-hydroxy-1,1-dimethylbutyl]4-fluorophenol] | ≤ 100 |
| CC(C)(CC(O)(Cc1ccc(O)cc1)C(F)(F)F)c1cc(F)ccc1O (stereo not shown) [4-Fluoro-2-[4,4,4-trifluoro-3-hydroxy-3-(4-hydroxybenzyl)-1,1-dimethylbutyl]phenol] | ≤ 100 |
| COc1ccc(F)cc1C(C)(C)CC(O)(Cc1ccccc1Br)C(F)(F)F (stereo not shown) [2-(2-Bromobenzyl)-1,1,1-trifluoro-4-(5-fluoro-2-methoxyphenyl)-4-methylpentan-2-ol] | ≤ 100 |
| CC(C)(CC(O)(Cc1cc(C(F)(F)F)cc(Cl)c1F)C(F)(F)F)c1ccc(F)cc1 (stereo not shown) [2-(3-Chloro-2-fluoro-5-trifluoromethylbenzyl)-1,1,1-trifluoro-4-(4-fluorophenyl)-4-methylpentan-2-ol] | ≤ 100 |
| COc1ccc(F)cc1C(C)(C)CC(O)(Cc1ccc(C(F)(F)F)c(F)c1)C(F)(F)F (stereo not shown) | ≤ 100 |
| COc1ccc(F)cc1C(C)(C)CC(O)(Cc1ccc(F)c(Cl)c1)C(F)(F)F (stereo not shown) [2-(3-Chloro-4-fluorobenzyl)-1,1,1-trifluoro-4-(5-fluoro-2-methoxyphenyl)-4-methylpentan-2-ol] | ≤ 100 |
| CC(C)(CC(O)(Cc1cc(C(F)(F)F)cc(Cl)c1F)C(F)(F)F)c1cc([N+](=O)[O-])cc2c1OCC2 (stereo not shown) | ≤ 100 |
| COc1ccc(F)cc1C(C)(C)CC(O)(Cc1cccc(C(F)(F)F)c1F)C(F)(F)F (stereo not shown) [1,1,1-Trifluoro-4-(5-fluoro-2-methoxyphenyl)-2-(2-fluoro-3-trifluoromethylbenzyl)-4-methylpentan-2-ol] | ≤ 100 |
| COc1ccc(F)cc1C(C)(C)CC(O)(Cc1cccc(Br)c1)C(F)(F)F (stereo not shown) [2-(3-Bromobenzyl)-1,1,1-trifluoro-4-(5-fluoro-2-methoxyphenyl)-4-methylpentan-2-ol] | ≤ 100 |
| CC(C)(CC(O)(Cc1cc(Cl)cc(Cl)c1)C(F)(F)F)c1ccccc1 (stereo not shown) [2-(3,5-Dichlorobenzyl)-1,1,1-trifluoro-4-methyl-4-phenylpentan-2-ol] | ≤ 100 |
| COc1ccc(F)cc1C(C)(C)CC(O)(Cc1cc(Cl)ccc1F)C(F)(F)F (stereo not shown) [2-(5-Chloro-2-fluorobenzyl)-1,1,1-trifluoro-4-(5-fluoro-2-methoxyphenyl)-4-methylpentan-2-ol] | ≤ 100 |
| Cc1cc(CC(O)(CC(C)(C)c2cc(F)ccc2O)C(F)(F)F)ccc1F (stereo not shown) [4-Fluoro-2-[4,4,4-trifluoro-3-(4-fluoro-3-methylbenzyl)-3-hydroxy-1,1-dimethylbutyl]phenol] | ≤ 100 |
| COc1ccc(F)cc1C(C)(C)CC(O)(Cc1ccc(Cl)c(C(F)(F)F)c1)C(F)(F)F (stereo not shown) [2-(4-Chloro-3-trifluoromethylbenzyl)-1,1,1-trifluoro-4-(5-fluoro-2-methoxyphenyl)-4-methylpentan-2-ol] | ≤ 100 |
| COc1ccc(F)cc1C(C)(C)CC(O)(C(O)c1cc(C)cc(C)c1)C(F)(F)F (stereo not shown) [1-(3,5-Dimethylphenyl)-4-(5-fluoro-2-methoxyphenyl)-4-methyl-2-trifluoromethylpentane-1,2-diol] | ≤ 100 |
| COc1ccc(F)cc1C(C)(C)CC(O)(Cc1ccc(Cl)cc1Cl)C(F)(F)F (stereo not shown) [2-(2,4-Dichlorobenzyl)-1,1,1-trifluoro-4-(5-fluoro-2-methoxyphenyl)-4-methylpentan-2-ol] | ≤ 100 |
| COc1ccc(F)cc1C(C)(C)CC(O)(Cc1ccc(C)c(C)c1)C(F)(F)F (stereo not shown) [2-(3,4-Dimethylbenzyl)-1,1,1-trifluoro-4-(5-fluoro-2-methoxyphenyl)-4-methylpentan-2-ol] | ≤ 100 |
| CC(C)(CC(O)(Cc1ccc(F)c(F)c1)C(F)(F)F)c1cc(F)ccc1O (stereo not shown) [2-[3-(3,4-Difluorobenzyl)-4,4,4-trifluoro-3-hydroxy-1,1-dimethylbutyl]4-fluorophenol] | ≤ 100 |

The next lines start with the values.

| IC50 [nM] | Structure (SMILES) |
| --- | --- |
| ≤ 100 | COc1ccc(F)cc1C(C)(C)CC(O)(Cc1c(C)ccc2ccccc12)C(F)(F)F (stereo not shown) [1,1,1-Trifluoro-4-(5-fluoro-2-methoxyphenyl)-4-methyl-2-(2-methylnaphthalen-1-ylmethyl)pentan-2-ol] |
| ≤ 100 | CC(C)(CC(O)(Cc1cc(C(F)(F)F)cc(C(F)(F)F)c1)C(F)(F)F)c1cc(F)ccc1O (stereo not shown) [2-[3-(3,5-Bis-trifluoromethylbenzyl)-4,4,4-trifluoro-3-hydroxy-1,1-dimethylbutyl]-4-fluorophenol] |
| ≤ 100 | COc1ccc(F)cc1C(C)(C)CC(O)(Cc1ccc(-c2ccccc2)cc1)C(F)(F)F (stereo not shown) [2-Biphenyl-4-ylmethyl-1,1,1-trifluoro-4-(5-fluoro-2-methoxyphenyl)-4-methylpentan-2-ol] |
| ≤ 100 | COc1ccc(C(C)(C)CC(O)(Cc2ccc(C#N)cc2Cl)C(F)(F)F)cc1 (stereo not shown) [3-Chloro-4-[2-hydroxy-4-(4-methoxyphenyl)-4-methyl-2-trifluoromethylpentyl]benzonitrile] |
| ≤ 100 | COc1ccc(F)cc1C(C)(C)CC(O)(Cc1cccc(Cl)c1F)C(F)(F)F (stereo not shown) [2-(3-Chloro-2-fluorobenzyl)-1,1,1-trifluoro-4-(5-fluoro-2-methoxyphenyl)-4-methylpentan-2ol] |
| ≤ 100 | COc1ccc(F)cc1C(C)(C)CC(O)(Cc1cc(F)cc(F)c1F)C(F)(F)F (stereo not shown) [1,1,1-Trifluoro-4-(5-fluoro-2-methoxyphenyl)-4-methyl-2-(2,3,5-trifluorobenzyl)pentan-2-ol] |
| ≤ 100 | COc1ccc(F)cc1C(C)(C)CC(O)(Cc1cc(F)cc(F)c1)C(F)(F)F (stereo not shown) [2-(3,5-Difluorobenzyl)-1,1,1-trifluoro-4-(5-fluoro-2-methoxyphenyl)-4-methylpentan-2-ol] |
| ≤ 100 | COc1ccc(F)cc1C(C)(C)CC(O)(Cc1cc(Cl)cc(Cl)c1Cl)C(F)(F)F (stereo not shown) |
| ≤ 100 | CC(C)(CC(O)(Cc1ccc(Cl)c(Cl)c1)C(F)(F)F)c1cccc(Cl)c1 (stereo not shown) [4-(3-Chlorophenyl)-2-(3,4-dichlorobenzyl)-1,1,1-trifluoro-4-methylpentan-2-ol] |
| ≤ 100 | CC(C)(CC(O)(Cc1cc(C(F)(F)F)cc(Cl)c1F)C(F)(F)F)c1cc(F)ccc1O (stereo not shown) [2-[3-(3-Chloro-2-fluoro-5-trifluoromethylbenzyl)-4,4,4-trifluoro-3-hydroxy-1,1-dimethylbutyl]-4-fluorophenol] |
| ≤ 100 | COc1ccc(F)cc1C(C)(C)CC(O)(Cc1ccc(C#N)cc1)C(F)(F)F (stereo not shown) [4-[4-(5-Fluoro-2-methoxyphenyl)-2-hydroxy-4-methyl-2-trifluoromethylpentyl]benzonitrile] |
| ≤ 100 | CC(C)(CC(O)(Cc1cc(F)c(F)c(F)c1)C(F)(F)F)c1cc(F)ccc1O (stereo not shown) [4-Fluoro-2-[4,4,4-trifluoro-3-hydroxy-1,1-dimethyl-3-(3,4,5-trifluorobenzyl)butyl]phenol] |
| ≤ 100 | CC(C)(CC(O)(Cc1cc(F)cc(F)c1)C(F)(F)F)c1cc(F)ccc1O (stereo not shown) [2-[3-(3,5-Difluorobenzyl)-4,4,4-trifluoro-3-hydroxy-1,1-dimethylbutyl]-4-fluorophenol] |
